Laboratory results reported in patent US20070043049A1, “Substituted heterocyclic diarylamine analogues” (Neurogen Corporation, priority 2003, published 2007).

biological target: T1, human capsaicin receptor (Homo sapiens, UniProt Q8NER1); test: Calcium mobilization assay, determination of antagonist activity (Example 6); assay type: cell-based; conditions: 50% decrease in fluorescence response of cells expressing human capsaicin receptor exposed to capsaicin
T1 construct: pBK-CMV expression construct encoding the full length human capsaicin receptor; expressed in transfected cells
In short: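 HEK293 cells stably expressing full-length human capsaicin receptor, Fluo-3 AM loaded, preincubated with compound 0.5–6 h at room temperature in KRH buffer pH 7.4. Challenged with capsaicin at its EC50; FLIPR fluorescence read. IC50 is concentration halving the capsaicin-induced calcium response.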

T1 sequence (Q8NER1 whole entry): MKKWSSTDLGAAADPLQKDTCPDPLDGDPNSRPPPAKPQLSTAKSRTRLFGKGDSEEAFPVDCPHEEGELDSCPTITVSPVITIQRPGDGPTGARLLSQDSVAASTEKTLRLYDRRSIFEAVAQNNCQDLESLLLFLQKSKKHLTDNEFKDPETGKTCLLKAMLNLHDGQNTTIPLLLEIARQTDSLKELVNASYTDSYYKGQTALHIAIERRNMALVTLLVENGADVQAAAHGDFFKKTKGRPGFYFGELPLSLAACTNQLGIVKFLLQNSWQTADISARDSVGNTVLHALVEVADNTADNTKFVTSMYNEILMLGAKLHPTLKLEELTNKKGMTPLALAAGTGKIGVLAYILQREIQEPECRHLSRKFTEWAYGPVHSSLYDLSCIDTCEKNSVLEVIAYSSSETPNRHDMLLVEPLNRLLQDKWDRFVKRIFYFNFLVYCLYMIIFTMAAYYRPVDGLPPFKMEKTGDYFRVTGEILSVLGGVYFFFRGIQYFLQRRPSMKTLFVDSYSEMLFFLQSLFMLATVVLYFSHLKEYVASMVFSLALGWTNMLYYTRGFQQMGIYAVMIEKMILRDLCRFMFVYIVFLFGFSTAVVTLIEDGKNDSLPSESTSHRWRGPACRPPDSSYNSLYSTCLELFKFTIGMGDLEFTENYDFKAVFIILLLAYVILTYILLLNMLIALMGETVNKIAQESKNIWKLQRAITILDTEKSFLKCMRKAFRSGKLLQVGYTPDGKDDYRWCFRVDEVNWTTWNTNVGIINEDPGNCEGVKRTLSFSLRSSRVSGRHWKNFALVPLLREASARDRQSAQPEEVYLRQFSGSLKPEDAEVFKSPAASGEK

IC50, ≤ 1000 nM:
Fc1ccc(Nc2cc(N3CCOCC3)nc(N3CCN(c4ncccc4C(F)(F)F)CC3)n2)cc1 [Compound 105, (4-Fluoro-phenyl)-{6-morpholin-4-yl-2-[4-(3-trifluoromethyl-pyridin-2-yl)-piperazin-1-yl]-pyrimidin-4-yl}-amine]
Cc1ccc(Nc2cc(N3CCOCC3)nc(N3CCN(c4ncccc4C(F)(F)F)CC3)n2)cc1 [Compound 106, {6-Morpholin-4-yl-2-[4-(3-trifluoromethyl-pyridin-2-yl)-piperazin-1-yl]-pyrimidin-4-yl}-p-tolyl-amine]
CCN(CC)c1nc(Nc2ccc(C#N)cc2)nc(N2CCN(c3ncccc3Cl)CC2)n1 [Compound 107, 4-{4-[4-(3-Chloro-pyridin-2-yl)-piperazin-1-yl]-6-diethylamino-[1,3,5]triazin-2-ylamino}-benzonitrile]
CCN(CC)c1nc(Nc2cc(OC)ccc2OC)nc(N2CCN(c3ccccn3)CC2)n1 [Compound 108, N-(2,5-Dimethoxy-phenyl)-N′,N′-diethyl-6-(4-pyridin-2-yl-piperazin-1-yl)-[1,3,5]triazine-2,4-diamine]
COCc1nc(Nc2ccc(F)c(F)c2)cc(N2CCN(c3ncccc3C(F)(F)F)CC2)n1 [Compound 109, (3,4-Difluoro-phenyl)-{2-methoxymethyl-6-[4-(3-trifluoromethyl-pyridin-2-yl)-piperazin-1-yl]-pyrimidin-4-yl}-amine]
OCc1nc(Nc2ccc(F)c(F)c2)cc(N2CCN(c3ncccc3C(F)(F)F)CC2)n1 [Compound 110, {4-(3,4-Difluoro-phenylamino)-6-[4-(3-trifluoromethyl-pyridin-2-yl)-piperazin-1-yl]-pyrimidin-2-yl}-methanol]
CCN(CC)Cc1nc(Nc2ccc(F)c(F)c2)cc(N2CCN(c3ncccc3C(F)(F)F)CC2)n1 [Compound 111, {2-Diethylaminomethyl-6-[4-(3-trifluoromethyl-pyridin-2-yl)-piperazin-1-yl]-pyrimidin-4-yl}-(3,4-difluoro-phenyl)-amine]
Fc1ccc(Nc2cc(N3CCN(c4ncccc4C(F)(F)F)CC3)nc(CN3CCOCC3)n2)cc1F [Compound 112, (3,4-Difluoro-phenyl)-{2-morpholin-4-ylmethyl-6-[4-(3-trifluoromethyl-pyridin-2-yl)-piperazin-1-yl]-pyrimidin-4-yl}-amine]
C[C@@H]1CN(Cc2nc(Nc3ccc(F)c(F)c3)cc(N3CCN(c4ncccc4C(F)(F)F)CC3)n2)C[C@H](C)O1 [Compound 113, (3,4-Difluoro-phenyl)-{2-(2,6-dimethyl-morpholin-4-ylmethyl)-6-[4-(3-trifluoromethyl-pyridin-2-yl)-piperazin-1-yl]-pyrimidin-4-yl}-amine]
CCCCc1ccc(-c2nc(Nc3ccc(C(F)(F)F)cc3)nc(N3CCN(c4ncccc4Cl)C[C@H]3C)n2)cc1 [Compound 115, {4-(4-Butyl-phenyl)-6-[4-(3-chloro-pyridin-2-yl)-2-methyl-piperazin-1-yl]-[1,3,5]triazin-2-yl}-(4-trifluoromethyl-phenyl)-amine]
COc1ccc(-c2nc(Nc3ccc(C(F)(F)F)cc3)nc(N3CCN(c4ncccc4Cl)C[C@H]3C)n2)c(OC)c1 [Compound 116, [4-[4-(3-Chloro-pyridin-2-yl)-2-methyl-piperazin-1-yl]-6-(2,4-dimethoxy-phenyl)-[1,3,5]triazin-2-yl]-(4-trifluoromethyl-phenyl)-amine]
